Counter-ions that a name gives are not always drawn. Like-named read-outs stand apart in the source and are kept apart here. Numbered stars: 1 amine (or outer) side, 2 acyl side, 3 side chain; on linkers, the order of the positions; unused ones are H or OH. Bridge positions count the residues as written; N and C are the ends. Square brackets hold non-standard residues; d marks the D form. Peptide text beside a SMILES is read from it. * marks the point of attachment. hTyr(3S-OH,4S-OH,3'-OSO3H) = N[C@H](C(=O)O)[C@H](O)[C@@H](O)c1ccc(O)c(OS(=O)(=O)O)c1; Orn(4R-OH,5R-OH) = O=C([C@H](C[C@@H](O)[C@@H](O)N[*:3])N[*:1])[*:2]; Pro(3S-OH,4S-Me) = C[C@H]1CN[C@H](C(=O)O)[C@H]1O; X1 = CCCCCOc1ccc(-c2cc(-c3ccc(C(=O)*)cc3)no2)cc1; Gln(3R-OH) = NC(=O)C[C@@H](O)[C@H](N)C(=O)O; Hyp = O=C(O)[C@@H]1C[C@@H](O)CN1
Key:
[1] = test system: C. albicans JCM1542; assay: iHOPE antimicrobial microdilution assay (turbidity OD600); format: cell-based, Candida albicans
[2] = iHOPE in vitro cytotoxicity assessment (Cell Count Reagent SF); format: cell-based, human; settings: human
Procedure: (§1) The method for in vitro cytotoxicity assessment using Cell Count Reagent SF (Nacalai Tesque) has been described previously ([15]). […] Test compounds were added to the culture medium, and then the plates were incubated at 28°C for 24 h.

[3] = test system: E. coli HO-141; assay: iHOPE antimicrobial microdilution assay; format: cell-based, Escherichia coli
[4] = test system: S. aureus 209P; assay: iHOPE antimicrobial microdilution assay; format: cell-based, Staphylococcus aureus; settings: read-out: IC50 against S. aureus 209P
[5] = test system: C. tropicalis JCM1541; assay: iHOPE antimicrobial microdilution assay (turbidity OD600); format: cell-based; settings: Candida tropicalis, read-out: IC50 against C. tropicalis JCM1541
[6] = test system: C. albicans JCM1542; format: cell-based, Candida albicans
[7] = test system: P. oryzae Kita-1; assay: microbe, parasite or virus in culture; format: cell-based, Pyricularia oryzae
[8] = test system: C. glabrata JCM3761; assay: iHOPE antimicrobial microdilution assay (turbidity OD600); format: cell-based, Candida glabrata; settings: Nakaseomyces glabratus, read-out: IC50 against C. glabrata JCM3761
[9] = test system: C. auris Ci6684; assay: as above; format: cell-based, Candida auris; settings: Candidozyma auris, read-out: IC50 against C. auris Ci6684
[10] = test system: A. fumigatus Af293; assay: iHOPE antimicrobial microdilution assay; format: cell-based, Aspergillus fumigatus
[11] = test system: C. auris VPCI673; assay: iHOPE antimicrobial microdilution assay (turbidity OD600); format: cell-based, Candida auris; settings: Candidozyma auris, read-out: IC50 against C. auris VPCI673
[12] = test system: HL-60 RCB0041; assay: iHOPE in vitro cytotoxicity assessment (Cell Count Reagent SF); format: cell-based, human
Procedure: as §1

[13] = Candida albicans, JCM1542; MOPS-RPMI medium, 28°C, 24 h, OD600; standard deviation in parentheses, n = 3; read-out: IC50 against C. albicans JCM1542
[14] = SD in parentheses, n = 3, read-out: IC50 against HL-60 RCB0041 (cytotoxicity)
[15] = Escherichia coli, HO141, SD in parentheses, n = 3, read-out: IC50 against E. coli HO-141
[16] = Staphylococcus aureus, 209P, SD in parentheses, n = 3
[17] = JCM1541, MOPS-RPMI medium, 24 h, SD in parentheses, n = 3
[18] = Pyricularia oryzae, KITA1, read-out: IC50 against P. oryzae Kita-1
[19] = JCM3761, MOPS-RPMI medium, 24 h, SD in parentheses, n = 3
[20] = CI6684, MOPS-RPMI medium, 24 h, SD in parentheses, n = 3
[21] = Aspergillus fumigatus, AF293, SD in parentheses, n = 3, read-out: IC50 against A. fumigatus Af293
[22] = VPCI673, MOPS-RPMI medium, 24 h, SD in parentheses, n = 3
[23] = Candida albicans, JCM1542, 24 h, read-out: IC50 against C. albicans JCM1542
[24] = MOPS-RPMI medium, 28°C, 24 h, OD600; standard deviation in parentheses, n = 3; read-out: IC50 against C. albicans JCM1542
[25] = C. albicans JCM1542, MOPS-RPMI medium, 24 h

## [C-]#[N+][C@@H](C)CC(=O)N[C@H]1CC[C@H](NC(=O)C[C@H](C)[N+]#[C-])CC1 [16b]
[1]; [13]
  IC50: 0.61 µM
[2]; [14]
  IC50: > 30 µM

## C[C@@H]1[C@H](O)[C@@H](C)/C=C/C=C/C=C/C=C/C=C/C=C/C=C/[C@H](O[C@@H]2O[C@H](C)[C@@H](O)[C@H](N)[C@@H]2O)C[C@@H]2O[C@](O)(C[C@@H](O)C[C@@H](O)[C@H](O)CC[C@@H](O)C[C@@H](O)CC(=O)O[C@H]1C)C[C@H](O)[C@H]2C(=O)O [Amphotericin B, amphotericin B]
[3]; [15]
  IC50: > 30 µM
[4]; [16]
  IC50: > 30 µM
[5]; [17]
  IC50: 0.046 µM
[6]
  morphological change induced in C. albicans: yeast-rich morphology
[1]; [13]
  IC50: 0.039 µM
[7]; [18]
  IC50: 0.16 µM
[8]; [19]
  IC50: 0.063 µM
[9]; [20]
  IC50: 0.41 µM
[2]
  IC50: 17 µM
[10]; [21]
  IC50: 0.21 µM
[11]; [22]
  IC50: 0.44 µM

## CCCCCC[C@H]1C(=O)O[C@H](C)[C@H](NC(=O)c2cccc(NC=O)c2O)C(=O)O[C@@H](C)[C@@H]1OC(=O)CC(C)C [Antimycin A, antimycin A]
[1]; [23]
  IC50: 0.035 µM

## [Cl][Cu][Cl] [Cu^2+, copper chloride (II)]
[3]; SD in parentheses, n = 3, read-out: IC50 against E. coli HO-141
  IC50: > 30 µM
[4]; SD in parentheses, n = 3
  IC50: > 30 µM
[6]
  concentration leading to earlier budding of C. albicans: ≥ 1 µM
[1]; [24]
  IC50: > 30 µM
[7]; SD in parentheses, n = 3, read-out: IC50 against P. oryzae Kita-1
  IC50: > 30 µM
[12]
  IC50: > 30 µM
[10]; SD in parentheses, n = 3, read-out: IC50 against A. fumigatus Af293
  IC50: > 30 µM

## CC(C)(S)[C@@H](N)C(=O)O [D-Penicillamine, D-penicillamine]
[3]; [15]
  IC50: > 1000 µM
[4]; [16]
  IC50: > 1000 µM
[5]; [17]
  IC50: > 1000 µM
[6]; [25]
  morphological change induced in C. albicans: morphological changes similar to those observed with SF2768
[7]; [18]
  IC50: > 1000 µM
[8]; [19]
  IC50: 270 µM
[9]; [20]
  IC50: > 1000 µM
[2]
  IC50: > 1000 µM
[10]; [21]
  IC50: > 1000 µM
[11]; [22]
  IC50: > 1000 µM

## OC(Cn1cncn1)(Cn1cncn1)c1ccc(F)cc1F [Fluconazole, fluconazole]
[3]; [15]
  IC50: > 30 µM
[4]; [16]
  IC50: > 30 µM
[5]; [17]
  IC50: 0.4 µM
[6]
  morphological change induced in C. albicans: yeast-rich morphology
[1]; [13]
  IC50: 0.39 µM
[7]; [18]
  IC50: > 30 µM
[8]; [19]
  IC50: 0.69 µM
[9]; [20]
  IC50: > 30 µM
[2]; HL-60 RCB0041 cells (promyelocytic leukemia cell line), SD in parentheses, n = 3, read-out: IC50 against HL-60 RCB0041 (cytotoxicity)
  IC50: > 30 µM
[10]; [21]
  IC50: > 30 µM
[11]; [22]
  IC50: > 30 µM

## OO [H2O2]
[1]; [24]
  IC50: 550 µM

## CCCCCOc1ccc(-c2cc(-c3ccc(C(=O)N[C@H]4C[C@@H](O)[C@@H](O)NC(=O)[C@@H]5[C@@H](O)[C@@H](C)CN5C(=O)[C@H]([C@H](O)CC(N)=O)NC(=O)[C@H]([C@H](O)[C@@H](O)c5ccc(O)c(OS(=O)(=O)O)c5)NC(=O)[C@@H]5C[C@@H](O)CN5C(=O)[C@H]([C@@H](C)O)NC4=O)cc3)no2)cc1 [Micafungin, micafungin] (X1-[Orn(4R-OH,5R-OH)]T[Hyp][hTyr(3S-OH,4S-OH,3'-OSO3H)][Gln(3R-OH)][Pro(3S-OH,4S-Me)]; lactam 1-C)
[3]; Escherichia coli, HO141, read-out: IC50 against E. coli HO-141
  IC50: > 30 µM
[4]; Staphylococcus aureus, 209P
  IC50: > 30 µM
[5]; JCM1541, 24 h
  IC50: 0.0054 µM
[6]; [25]
  morphological change induced in C. albicans: yeast-rich morphology
[1]; [23]
  IC50: 0.0033 µM
[7]; [18]
  IC50: > 30 µM
[8]; JCM3761, 24 h
  IC50: 0.0049 µM
[9]; CI6684, 24 h
  IC50: 0.029 µM
[2]; [14]
  IC50: > 30 µM
[10]; Aspergillus fumigatus, AF293, read-out: IC50 against A. fumigatus Af293
  IC50: 0.004 µM
[11]; VPCI673, 24 h
  IC50: 0.027 µM

## C/C=C(\C)[C@H](O)[C@H](C)/C=C(C)/C=C/C/C(C)=C/Cc1nc(OC)c(OC)c(O)c1C [Piericidin A, piericidin A]
[1]; [23]
  IC50: 12 µM

## NCCNCCNCCN [Trientine, trientine hydrochloride]
[3]; [15]
  IC50: > 100 µM
[4]; [16]
  IC50: > 100 µM
[5]; [17]
  IC50: 18 µM
[6]
  morphological change induced in C. albicans: morphological changes similar to those observed with SF2768
[1]; [13]
  IC50: 0.57 µM
[7]; [18]
  IC50: > 100 µM
[8]; [19]
  IC50: 0.12 µM
[9]; [20]
  IC50: > 100 µM
[2]
  IC50: > 100 µM
[10]; [21]
  IC50: 8.1 µM
[11]; [22]
  IC50: > 100 µM

## COc1cc(-c2ccccn2)nc(/C=N/O)c1SC [collismycin]
[6]; [25]
  morphological change induced in C. albicans: elongated, but not as long as SF2768, and tortuous hyphae

## C/C=C/C(=O)NCc1ccc(N)cc1 [compound 9]
[1]; C. albicans JCM1542
  antifungal activity / inhibition of budding against C. albicans (in words): did not mediate any changes in either the survival rate or morphology
[1]; [13]
  IC50: > 30 µM
[2]; [14]
  IC50: > 30 µM

## CCCC(=O)NCc1ccc(NC(=O)CCC)cc1 [compound 11]
[1]; C. albicans JCM1542
  antifungal activity / inhibition of budding against C. albicans (in words): did not mediate any changes in either the survival rate or morphology
[1]; [13]
  IC50: > 30 µM
[2]; [14]
  IC50: > 30 µM

## CC(C)=CCC/C(C)=C/CC/C(C)=C/CO [farnesol]
[6]; 3 µM, MOPS-RPMI
  growth form of C. albicans under hyphal growth conditions: the cells grew as yeast form

## oligomycin A
[1]; read-out: IC50 against C. albicans JCM1542; MOPS-RPMI medium, 28°C, 24 h, OD600; standard deviation in parentheses, n = 3
  IC50: 3.1 µM
